Starred links: 1 amine or outer side, 2 acyl side, 3 side chain; linkers in the order of their positions; H or OH if unused. Non-standard residues stand in square brackets, D forms with d. Residues, ends and D or L forms follow the SMILES beside them. Phe(4-(trans-4-COOH-cHex)) = N[C@@H](Cc1ccc([C@H]2CC[C@H](C(=O)O)CC2)cc1)C(=O)O; Phe(4-(cis-4-COOH-cHex)) = N[C@@H](Cc1ccc([C@H]2CC[C@@H](C(=O)O)CC2)cc1)C(=O)O; Ala(piperidin-4-yl) = O=C([C@H](CC1CCN([*:3])CC1)N[*:1])[*:2]; Trp(βS-Me,4-F) = C[C@@H](c1c[nH]c2cccc(F)c12)[C@H](N)C(=O)O; Bip(4'-COOH) = N[C@@H](Cc1ccc(-c2ccc(C(=O)O)cc2)cc1)C(=O)O; dPro(4R-Bzl(4-F)) = O=C(O)[C@H]1C[C@@H](Cc2ccc(F)cc2)CN1; Ala(morpholin-4-yl) = N[C@@H](CN1CCOCC1)C(=O)O; Ala(piperazin-1-yl) = N[C@@H](CN1CCNCC1)C(=O)O; Ala(pyrimidin-5-yl) = N[C@@H](Cc1cncnc1)C(=O)O; Phe(4-COOH) = N[C@@H](Cc1ccc(C(=O)O)cc1)C(=O)O; Ala(4-Pyridazinyl) = N[C@@H](Cc1ccnnc1)C(=O)O; Ala(2-pyrazinyl) = N[C@@H](Cc1cnccn1)C(=O)O; Pro(cis-4-F) = O=C(O)[C@@H]1C[C@H](F)CN1; Ala(4-THP) = N[C@@H](CC1CCOCC1)C(=O)O; X10 = C[C@@](CCN)(N[*:1])C(=O)[*:2]; cisHyp = O=C(O)[C@@H]1C[C@H](O)CN1; d(αMeD) = C[C@@](N)(CC(=O)O)C(=O)O; 4Pal = N[C@@H](Cc1ccncc1)C(=O)O; Dab = NCC[C@H](N)C(=O)O; Aib = CC(C)(N)C(=O)O
Each compound was assayed against T1, IL-1β (Homo sapiens, UniProt P01584) (assay: IL-6 assay in MRC5 cells: inhibition of IL-1β induced IL-6 secretion (AlphaLISA)). Details: inhibition of IL-1β induced IL-6 secretion in MRC5 cells; read-out: MRC5 IC50.
T1 construct: purchased BioLegend 579404
Assay type: cell-based
Summary of the method: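 Compound was pre-incubated 1 h at ambient temperature with recombinant human IL-1β at 2λ EC80 before adding human lung fibroblast MRC5 cells (3000/well) in EMEM with 0.025% BSA. After overnight culture at 37 °C, 5% CO2, secreted IL-6 in conditioned medium was measured by AlphaLISA; IC50 from 4-parameter logistic fits.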

T1 sequence (P01584 117-269): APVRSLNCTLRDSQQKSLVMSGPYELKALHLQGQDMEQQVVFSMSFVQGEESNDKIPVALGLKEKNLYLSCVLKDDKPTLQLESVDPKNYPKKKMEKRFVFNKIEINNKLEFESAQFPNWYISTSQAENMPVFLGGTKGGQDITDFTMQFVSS

Structure (SMILES)	IC50 [nM]
C[C@@H](c1c[nH]c2cccc(F)c12)[C@@H]1NC(=O)[C@@H]2C[C@H](F)CN2C(=O)CNC(=O)[C@H](Cc2ccc(C(=O)O)cc2)NC(=O)[C@H](Cc2ccncc2)NC(=O)[C@H](Cc2ccc([C@H]3CC[C@H](C(=O)O)CC3)cc2)NC(=O)[C@H]2C[C@@H](Cc3ccc(F)cc3)CN2C(=O)CNC(=O)[C@H](CCN)NC(=O)[C@H](CCC(N)=O)NC(=O)[C@H](Cc2cncnc2)NC(=O)C(C)(C)NC(=O)[C@H](Cc2c[nH]c3ccccc23)NC(=O)[C@H](CCC(=O)O)NC(=O)C(C)(C)NC1=O [Example 114] (cyclo([Phe(4-(trans-4-COOH-cHex))][4Pal][Phe(4-COOH)]G[Pro(cis-4-F)][Trp(βS-Me,4-F)][Aib]EW[Aib][Ala(pyrimidin-5-yl)]Q[Dab]G[dPro(4R-Bzl(4-F))]))	0.035
C[C@@H](c1c[nH]c2cccc(F)c12)[C@@H]1NC(=O)[C@@H]2C[C@H](F)CN2C(=O)CNC(=O)[C@H](Cc2ccc(C(=O)O)cc2)NC(=O)[C@H](Cc2ccncc2)NC(=O)[C@H](Cc2ccc(-c3ccc(C(=O)O)cc3)cc2)NC(=O)[C@H]2C[C@@H](Cc3ccc(F)cc3)CN2C(=O)CNC(=O)[C@H](CCN)NC(=O)[C@H](CCC(N)=O)NC(=O)[C@H](Cc2ccnnc2)NC(=O)C(C)(C)NC(=O)[C@H](Cc2c[nH]c3ccccc23)NC(=O)[C@H](CCC(=O)O)NC(=O)C(C)(C)NC1=O [Example 115] (cyclo([Bip(4'-COOH)][4Pal][Phe(4-COOH)]G[Pro(cis-4-F)][Trp(βS-Me,4-F)][Aib]EW[Aib][Ala(4-Pyridazinyl)]Q[Dab]G[dPro(4R-Bzl(4-F))]))	0.023
C[C@@H](c1c[nH]c2cccc(F)c12)[C@@H]1NC(=O)[C@@H]2C[C@H](F)CN2C(=O)CNC(=O)[C@H](Cc2ccc(C(=O)O)cc2)NC(=O)[C@H](Cc2ccnnc2)NC(=O)[C@H](Cc2ccc(-c3ccc(C(=O)O)cc3)cc2)NC(=O)[C@H]2C[C@@H](Cc3ccc(F)cc3)CN2C(=O)CNC(=O)[C@H](CCN)NC(=O)[C@H](CCC(N)=O)NC(=O)[C@H](Cc2cncnc2)NC(=O)C(C)(C)NC(=O)[C@H](Cc2c[nH]c3ccccc23)NC(=O)[C@H](CCC(=O)O)NC(=O)C(C)(C)NC1=O [Example 116] (cyclo([Bip(4'-COOH)][Ala(4-Pyridazinyl)][Phe(4-COOH)]G[Pro(cis-4-F)][Trp(βS-Me,4-F)][Aib]EW[Aib][Ala(pyrimidin-5-yl)]Q[Dab]G[dPro(4R-Bzl(4-F))]))	0.04
C[C@@H](c1c[nH]c2cccc(F)c12)[C@@H]1NC(=O)[C@@H]2C[C@H](F)CN2C(=O)CNC(=O)[C@H](Cc2ccc(C(=O)O)cc2)NC(=O)[C@H](Cc2ccncc2)NC(=O)[C@H](Cc2ccc([C@H]3CC[C@@H](C(=O)O)CC3)cc2)NC(=O)[C@H]2C[C@@H](Cc3ccc(F)cc3)CN2C(=O)CNC(=O)[C@H](CCN)NC(=O)[C@H](CCC(N)=O)NC(=O)[C@H](Cc2cnccn2)NC(=O)C(C)(C)NC(=O)[C@H](Cc2c[nH]c3ccccc23)NC(=O)[C@H](CCC(=O)O)NC(=O)C(C)(C)NC1=O [Example 117] (cyclo([Phe(4-(cis-4-COOH-cHex))][4Pal][Phe(4-COOH)]G[Pro(cis-4-F)][Trp(βS-Me,4-F)][Aib]EW[Aib][Ala(2-pyrazinyl)]Q[Dab]G[dPro(4R-Bzl(4-F))]))	0.027
C[C@@H](c1c[nH]c2cccc(F)c12)[C@@H]1NC(=O)[C@@H]2C[C@H](F)CN2C(=O)CNC(=O)[C@H](Cc2ccc(C(=O)O)cc2)NC(=O)[C@H](Cc2ccncc2)NC(=O)[C@H](Cc2ccc(-c3ccc(C(=O)O)cc3)cc2)NC(=O)[C@H]2C[C@@H](Cc3ccc(F)cc3)CN2C(=O)CNC(=O)[C@H](CCN)NC(=O)[C@H](CCC(N)=O)NC(=O)[C@H](CC2CCNCC2)NC(=O)C(C)(C)NC(=O)[C@H](Cc2c[nH]c3ccccc23)NC(=O)[C@H](CCC(=O)O)NC(=O)C(C)(C)NC1=O [Example 119] (cyclo([Bip(4'-COOH)][4Pal][Phe(4-COOH)]G[Pro(cis-4-F)][Trp(βS-Me,4-F)][Aib]EW[Aib][Ala(piperidin-4-yl)]Q[Dab]G[dPro(4R-Bzl(4-F))]))	0.016
C[C@@H](c1c[nH]c2cccc(F)c12)[C@@H]1NC(=O)[C@@H]2C[C@H](F)CN2C(=O)CNC(=O)[C@H](Cc2ccc(C(=O)O)cc2)NC(=O)[C@H](Cc2ccncc2)NC(=O)[C@H](Cc2ccc(-c3ccc(C(=O)O)cc3)cc2)NC(=O)[C@H]2C[C@@H](Cc3ccc(F)cc3)CN2C(=O)CNC(=O)[C@H](CO)NC(=O)[C@H](CCC(N)=O)NC(=O)[C@H](CC2CCNCC2)NC(=O)C(C)(C)NC(=O)[C@H](Cc2c[nH]c3ccccc23)NC(=O)[C@H](CCC(=O)O)NC(=O)C(C)(C)NC1=O [Example 121] (cyclo([Bip(4'-COOH)][4Pal][Phe(4-COOH)]G[Pro(cis-4-F)][Trp(βS-Me,4-F)][Aib]EW[Aib][Ala(piperidin-4-yl)]QSG[dPro(4R-Bzl(4-F))]))	0.029
C[C@@H](c1c[nH]c2cccc(F)c12)[C@@H]1NC(=O)[C@@H]2C[C@H](F)CN2C(=O)CNC(=O)[C@H](Cc2ccc(C(=O)O)cc2)NC(=O)[C@H](Cc2ccncc2)NC(=O)[C@H](Cc2ccc(-c3ccc(C(=O)O)cc3)cc2)NC(=O)[C@H]2C[C@@H](Cc3ccc(F)cc3)CN2C(=O)CNC(=O)[C@H](CO)NC(=O)[C@H](CCC(N)=O)NC(=O)[C@H](CN2CCNCC2)NC(=O)C(C)(C)NC(=O)[C@H](Cc2c[nH]c3ccccc23)NC(=O)[C@H](CCC(=O)O)NC(=O)C(C)(C)NC1=O [Example 122] (cyclo([Bip(4'-COOH)][4Pal][Phe(4-COOH)]G[Pro(cis-4-F)][Trp(βS-Me,4-F)][Aib]EW[Aib][Ala(piperazin-1-yl)]QSG[dPro(4R-Bzl(4-F))]))	0.019
C[C@@H](c1c[nH]c2cccc(F)c12)[C@@H]1NC(=O)[C@@H]2C[C@H](F)CN2C(=O)CNC(=O)[C@H](Cc2ccc(C(=O)O)cc2)NC(=O)[C@H](Cc2ccncc2)NC(=O)[C@H](Cc2ccc(-c3ccc(C(=O)O)cc3)cc2)NC(=O)[C@H]2C[C@@H](Cc3ccc(F)cc3)CN2C(=O)CNC(=O)[C@H](CO)NC(=O)[C@H](CCC(N)=O)NC(=O)[C@H](CN2CCOCC2)NC(=O)C(C)(C)NC(=O)[C@H](Cc2c[nH]c3ccccc23)NC(=O)[C@H](CCC(=O)O)NC(=O)C(C)(C)NC1=O [Example 125] (cyclo([4Pal][Phe(4-COOH)]G[Pro(cis-4-F)][Trp(βS-Me,4-F)][Aib]EW[Aib][Ala(morpholin-4-yl)]QSG[dPro(4R-Bzl(4-F))][Bip(4'-COOH)]))	0.041
C[C@@H](c1c[nH]c2cccc(F)c12)[C@@H]1NC(=O)[C@@H]2C[C@H](F)CN2C(=O)CNC(=O)[C@H](Cc2ccc(C(=O)O)cc2)NC(=O)[C@H](Cc2ccncc2)NC(=O)[C@H](Cc2ccc(-c3ccc(C(=O)O)cc3)cc2)NC(=O)[C@H]2C[C@@H](Cc3ccc(F)cc3)CN2C(=O)CNC(=O)[C@H](CCN)NC(=O)[C@H](CCC(N)=O)NC(=O)[C@H](Cc2cncnc2)NC(=O)C(C)(C)NC(=O)[C@H](Cc2c[nH]c3ccccc23)NC(=O)[C@H](CO)NC(=O)[C@](C)(CCN)NC1=O [Example 129] (cyclo([Bip(4'-COOH)][4Pal][Phe(4-COOH)]G[Pro(cis-4-F)][Trp(βS-Me,4-F)][X10]SW[Aib][Ala(pyrimidin-5-yl)]Q[Dab]G[dPro(4R-Bzl(4-F))]))	0.019

The remaining lines, values ahead:

IC50 [nM]	Structure (SMILES)
0.016	C[C@@H](c1c[nH]c2cccc(F)c12)[C@@H]1NC(=O)[C@@H]2C[C@H](F)CN2C(=O)CNC(=O)[C@H](Cc2ccc(C(=O)O)cc2)NC(=O)[C@H](Cc2ccncc2)NC(=O)[C@H](Cc2ccc(-c3ccc(C(=O)O)cc3)cc2)NC(=O)[C@H]2C[C@@H](Cc3ccc(F)cc3)CN2C(=O)CNC(=O)[C@H](CCN)NC(=O)[C@H](CCC(N)=O)NC(=O)[C@H](CC2CCOCC2)NC(=O)C(C)(C)NC(=O)[C@H](Cc2c[nH]c3ccccc23)NC(=O)[C@H](CCC(=O)O)NC(=O)C(C)(C)NC1=O [Example 118] (cyclo([Bip(4'-COOH)][4Pal][Phe(4-COOH)]G[Pro(cis-4-F)][Trp(βS-Me,4-F)][Aib]EW[Aib][Ala(4-THP)]Q[Dab]G[dPro(4R-Bzl(4-F))]))
0.014	C[C@@H](c1c[nH]c2cccc(F)c12)[C@@H]1NC(=O)[C@@H]2C[C@H](F)CN2C(=O)CNC(=O)[C@H](Cc2ccc(C(=O)O)cc2)NC(=O)[C@H](Cc2ccncc2)NC(=O)[C@H](Cc2ccc(-c3ccc(C(=O)O)cc3)cc2)NC(=O)[C@H]2C[C@@H](Cc3ccc(F)cc3)CN2C(=O)CNC(=O)[C@H](CCN)NC(=O)[C@H](CCC(N)=O)NC(=O)[C@H](CN2CCNCC2)NC(=O)C(C)(C)NC(=O)[C@H](Cc2c[nH]c3ccccc23)NC(=O)[C@H](CCC(=O)O)NC(=O)C(C)(C)NC1=O [Example 120] (cyclo([Bip(4'-COOH)][4Pal][Phe(4-COOH)]G[Pro(cis-4-F)][Trp(βS-Me,4-F)][Aib]EW[Aib][Ala(piperazin-1-yl)]Q[Dab]G[dPro(4R-Bzl(4-F))]))
0.013	C[C@@H](c1c[nH]c2cccc(F)c12)[C@@H]1NC(=O)[C@@H]2C[C@H](O)CN2C(=O)CNC(=O)[C@H](Cc2ccc(C(=O)O)cc2)NC(=O)[C@H](Cc2ccncc2)NC(=O)[C@H](Cc2ccc(-c3ccc(C(=O)O)cc3)cc2)NC(=O)[C@H]2C[C@@H](Cc3ccc(F)cc3)CN2C(=O)CNC(=O)[C@H](CCN)NC(=O)[C@H](CCC(N)=O)NC(=O)[C@H](Cc2cncnc2)NC(=O)C(C)(C)NC(=O)[C@H](Cc2c[nH]c3ccccc23)NC(=O)[C@H](CO)NC(=O)C(C)(C)NC1=O [Example 127] (cyclo([Bip(4'-COOH)][4Pal][Phe(4-COOH)]G[cisHyp][Trp(βS-Me,4-F)][Aib]SW[Aib][Ala(pyrimidin-5-yl)]Q[Dab]G[dPro(4R-Bzl(4-F))]))
0.009	C[C@@H](c1c[nH]c2cccc(F)c12)[C@@H]1NC(=O)[C@@H]2C[C@H](F)CN2C(=O)CNC(=O)[C@H](Cc2ccc(C(=O)O)cc2)NC(=O)[C@H](Cc2ccncc2)NC(=O)[C@H](Cc2ccc(-c3ccc(C(=O)O)cc3)cc2)NC(=O)[C@H]2C[C@@H](Cc3ccc(F)cc3)CN2C(=O)CNC(=O)[C@H](CCN)NC(=O)[C@H](CCC(N)=O)NC(=O)[C@H](Cc2cncnc2)NC(=O)[C@@](C)(CC(=O)O)NC(=O)[C@H](Cc2c[nH]c3ccccc23)NC(=O)[C@H](CO)NC(=O)C(C)(C)NC1=O [Example 128] (cyclo([Bip(4'-COOH)][4Pal][Phe(4-COOH)]G[Pro(cis-4-F)][Trp(βS-Me,4-F)][Aib]SW[d(αMeD)][Ala(pyrimidin-5-yl)]Q[Dab]G[dPro(4R-Bzl(4-F))]))

Reference: US20260242419A1, “A CYCLIC PEPTIDE FOR TRAPPING INTERLEUKIN-1 BETA” (Merck Sharp & Dohme LLC, priority 2023, published 2026)
